Experiment: Bulk and tapped density measurement by standard pharmaceutical methods
Type: physicochemical
Method: Density measurements were carried out using standard pharmaceutical methods for the measurement of bulk and tapped density. A comparison of the apparent density of the freshly dispensed or bulk powder to that of powder after settling is shown in Table 4.

Bulk Density (freshly dispensed or bulk powder): 0.55 g/mL
Tapped Density (powder after settling): 0.79 g/mL
SMILES: N[C@@H](Cc1c[nH]cn1)C(=O)O [L-Histidine]

Source: US20020004072A1, “"COMPOSITION PROVIDING A SUSTAINED RELEASE OF L-HISTIDINE AND METHODS OF MANUFACTURE THEREOF"” (priority 1999, published 2002)
